The results in this text go back to US11236089B2, “Substituted pyrrolopyridines as ATR inhibitors” (BlueValley Pharmaceutical LLC, priority 2017, dated 2022).

Data set [1] addresses ATR (Homo sapiens (Human), UniProt Q13535). Description: Enzyme ATR in vitro enzyme assay (ELISA, phospho-Ser15 p53 substrate). The format is biochemical. The conditions noted are these: ATR immunoprecipitated from HeLa nuclear extract; GST-p53N66 substrate; ATP 3 μM; 37° C. As to the method:
ATR for use in the in vitro enzyme assay was obtained from HeLa nuclear extract (CIL Biotech, Mons, Belgium) by immunoprecipitation with rabbit polyclonal antiserum raised to amino acids 400-480 of ATR (Tibbetts R S et al, 1999, Genes Dev. 13:152-157) contained in the following buffer (25 mM HEPES (pH7.4), 2 mM MgCl2, 250 mM NaCl, 0.5 mM EDTA, 0.1 mM Na3V04, 10% v/v glycerol, and 0.01% v/v Tween 20). ATR-antibody complexes were isolated from nuclear extract by incubating with protein A-Sepharose beads (Sigma, #P3476) for 1 hour and then through centrifugation to recover the beads. In the well of a 96-well plate, […] Sepharose beads were incubated with 1 μg of substrate glutathione S-transferase-p53N66 (NH2-terminal 66 amino acids of p53 fused to glutathione ^-transferase was expressed in E. coli) in ATR assay buffer (50 mM HEPES (pH 7.4), 150 mM NaCl, 6 mM MgCl2, 4 mM MnCl2, 0.1 mM Na3V04, 0.1 mM DTT, and 10% (v/v) glycerol) at 37° C. in the presence or absence of inhibitor. After 10 minutes with gentle shaking, ATP was added to a final concentration of 3 μM and the reaction continued at 37° C. for an additional 1 hour. The reaction was stopped by addition of IOOμí PBS and the reaction was transferred to a white opaque glutathione coated 96-well plate (NUNC #436033) and incubated overnight at 4° C. This plate was then washed with PBS/0.05%>(v/v) Tween 20, blotted dry, and analyzed by a standard ELISA (Enzyme-Linked Immunosorbent Assay) technique with a phospho-serine 15 p53 (16G78) antibody (Cell Signaling Technology, #9286). The detection of phosphorylated glutathione S-transferase-pSSNee substrate was performed in combination with a goat anti-mouse horseradish peroxidase-conjugated secondary antibody (Pierce, #31430). Enhanced chemiluminescence solution (NEN, Boston, Mass.) was used to produce a signal and chemiluminescent detection was carried out via a TopCount (Packard, Meriden, Conn.) plate reader.
For orientation: In an ELISA, binding on a coated surface is turned into a signal by an enzyme label.

The subject of data set [2] is ATM-Deficient Colorectal Cancer LoVo Cell Lines. Description: In vitro anti-proliferation assay (ATPlite luminescence). The format is cell-based. The following applies: Homo sapiens; LoVo cells; about 72 hours; 5% FBS. As to the method:
Cell antiproliferation was assayed by PerkinElmer ATPlite™ Luminescence Assay System. Briefly, the various test cancer cell lines were plated at a density of about 1×10^4 cells per well in Costar 96-well plates, and were incubated with different concentrations of compounds for about 72 hours in medium supplemented with 5% FBS. One lyophilized substrate solution vial was then reconstituted by adding 5 mL of substrate buffer solution, and was agitated gently until the solution was homogeneous. About 50 μL of mammalian cell lysis solution was added to 100 μL of cell suspension per well of a microplate, and the plate was shaken for about five minutes in an orbital shaker at ˜700 rpm. This procedure was used to lyse the cells and to stabilize the ATP. Next, 50 μL substrate solution was added to the wells and microplate was shaken for five minutes in an orbital shaker at ˜700 rpm. Finally, the luminescence was measured by a PerkinElmer TopCount® Microplate Scintillation Counter. Such assays, carried out with a range of doses of test compounds, allowed the determination of the cellular anti-antiproliferative IC50 of the compounds of the present invention. The following table lists the IC50 values of several cancer cell lines (5% FBS) for certain compounds of the invention.
(ATP-based viability assays read luminescence as a measure of living cells.)

Data set [3] can be described thus: Mice PK study. The format is in vivo. The conditions noted are these: CD-1 mouse; oral dosing po, 10 mg/kg; plasma. On the procedure: The pharmacokinetics of compounds were evaluated in CD-1 mouse via Intravenous and Oral Administration. The IV dose was administered as a slow bolus in the Jugular vein, and oral doses were administered by gavage. The formulation for IV dosing was 5% DMSO in 20% HPBCD in water, and the PO formulation was 2.5% DMSO, 10% EtOH, 20% Cremphor EL, 67.5% D5W. The PK time point for the IV arm was 5, 15, 30 min, 1, 2, 4, 6, 8, 12, 24 hours post dose, and for PO arm was 15, 30 min, 1, 2, 4, 6, 8, 12, 24 hours post dose. Approximately 0.03 mL blood was collected at each time point. Blood of each sample was transferred into plastic micro centrifuge tubes containing EDTA-K2 and collect plasma within 15 min by centrifugation at 4000 g for 5 minutes in a 4° C. centrifuge. Plasma samples were stored in polypropylene tubes. The samples were stored in a freezer at −75±15° C. prior to analysis. Concentrations of compounds in the plasma samples were analyzed using a LC-MS/MS method. WinNonlin (Phoenix™, version 6.1) or other similar software was used for pharmacokinetic calculations. The following pharmacokinetic parameters were calculated, whenever possible from the plasma concentration versus time data: IV administration: C0, CL, Vd, T1/2, AUCinf, AUClast, MRT, Number of Points for Regression; PO administration: Cmax, Tmax, T1/2, AUCinf, AUClast, F %, Number of Points for Regression. […]

ATR, sequence (Q13535 whole entry, the tested form may be a part): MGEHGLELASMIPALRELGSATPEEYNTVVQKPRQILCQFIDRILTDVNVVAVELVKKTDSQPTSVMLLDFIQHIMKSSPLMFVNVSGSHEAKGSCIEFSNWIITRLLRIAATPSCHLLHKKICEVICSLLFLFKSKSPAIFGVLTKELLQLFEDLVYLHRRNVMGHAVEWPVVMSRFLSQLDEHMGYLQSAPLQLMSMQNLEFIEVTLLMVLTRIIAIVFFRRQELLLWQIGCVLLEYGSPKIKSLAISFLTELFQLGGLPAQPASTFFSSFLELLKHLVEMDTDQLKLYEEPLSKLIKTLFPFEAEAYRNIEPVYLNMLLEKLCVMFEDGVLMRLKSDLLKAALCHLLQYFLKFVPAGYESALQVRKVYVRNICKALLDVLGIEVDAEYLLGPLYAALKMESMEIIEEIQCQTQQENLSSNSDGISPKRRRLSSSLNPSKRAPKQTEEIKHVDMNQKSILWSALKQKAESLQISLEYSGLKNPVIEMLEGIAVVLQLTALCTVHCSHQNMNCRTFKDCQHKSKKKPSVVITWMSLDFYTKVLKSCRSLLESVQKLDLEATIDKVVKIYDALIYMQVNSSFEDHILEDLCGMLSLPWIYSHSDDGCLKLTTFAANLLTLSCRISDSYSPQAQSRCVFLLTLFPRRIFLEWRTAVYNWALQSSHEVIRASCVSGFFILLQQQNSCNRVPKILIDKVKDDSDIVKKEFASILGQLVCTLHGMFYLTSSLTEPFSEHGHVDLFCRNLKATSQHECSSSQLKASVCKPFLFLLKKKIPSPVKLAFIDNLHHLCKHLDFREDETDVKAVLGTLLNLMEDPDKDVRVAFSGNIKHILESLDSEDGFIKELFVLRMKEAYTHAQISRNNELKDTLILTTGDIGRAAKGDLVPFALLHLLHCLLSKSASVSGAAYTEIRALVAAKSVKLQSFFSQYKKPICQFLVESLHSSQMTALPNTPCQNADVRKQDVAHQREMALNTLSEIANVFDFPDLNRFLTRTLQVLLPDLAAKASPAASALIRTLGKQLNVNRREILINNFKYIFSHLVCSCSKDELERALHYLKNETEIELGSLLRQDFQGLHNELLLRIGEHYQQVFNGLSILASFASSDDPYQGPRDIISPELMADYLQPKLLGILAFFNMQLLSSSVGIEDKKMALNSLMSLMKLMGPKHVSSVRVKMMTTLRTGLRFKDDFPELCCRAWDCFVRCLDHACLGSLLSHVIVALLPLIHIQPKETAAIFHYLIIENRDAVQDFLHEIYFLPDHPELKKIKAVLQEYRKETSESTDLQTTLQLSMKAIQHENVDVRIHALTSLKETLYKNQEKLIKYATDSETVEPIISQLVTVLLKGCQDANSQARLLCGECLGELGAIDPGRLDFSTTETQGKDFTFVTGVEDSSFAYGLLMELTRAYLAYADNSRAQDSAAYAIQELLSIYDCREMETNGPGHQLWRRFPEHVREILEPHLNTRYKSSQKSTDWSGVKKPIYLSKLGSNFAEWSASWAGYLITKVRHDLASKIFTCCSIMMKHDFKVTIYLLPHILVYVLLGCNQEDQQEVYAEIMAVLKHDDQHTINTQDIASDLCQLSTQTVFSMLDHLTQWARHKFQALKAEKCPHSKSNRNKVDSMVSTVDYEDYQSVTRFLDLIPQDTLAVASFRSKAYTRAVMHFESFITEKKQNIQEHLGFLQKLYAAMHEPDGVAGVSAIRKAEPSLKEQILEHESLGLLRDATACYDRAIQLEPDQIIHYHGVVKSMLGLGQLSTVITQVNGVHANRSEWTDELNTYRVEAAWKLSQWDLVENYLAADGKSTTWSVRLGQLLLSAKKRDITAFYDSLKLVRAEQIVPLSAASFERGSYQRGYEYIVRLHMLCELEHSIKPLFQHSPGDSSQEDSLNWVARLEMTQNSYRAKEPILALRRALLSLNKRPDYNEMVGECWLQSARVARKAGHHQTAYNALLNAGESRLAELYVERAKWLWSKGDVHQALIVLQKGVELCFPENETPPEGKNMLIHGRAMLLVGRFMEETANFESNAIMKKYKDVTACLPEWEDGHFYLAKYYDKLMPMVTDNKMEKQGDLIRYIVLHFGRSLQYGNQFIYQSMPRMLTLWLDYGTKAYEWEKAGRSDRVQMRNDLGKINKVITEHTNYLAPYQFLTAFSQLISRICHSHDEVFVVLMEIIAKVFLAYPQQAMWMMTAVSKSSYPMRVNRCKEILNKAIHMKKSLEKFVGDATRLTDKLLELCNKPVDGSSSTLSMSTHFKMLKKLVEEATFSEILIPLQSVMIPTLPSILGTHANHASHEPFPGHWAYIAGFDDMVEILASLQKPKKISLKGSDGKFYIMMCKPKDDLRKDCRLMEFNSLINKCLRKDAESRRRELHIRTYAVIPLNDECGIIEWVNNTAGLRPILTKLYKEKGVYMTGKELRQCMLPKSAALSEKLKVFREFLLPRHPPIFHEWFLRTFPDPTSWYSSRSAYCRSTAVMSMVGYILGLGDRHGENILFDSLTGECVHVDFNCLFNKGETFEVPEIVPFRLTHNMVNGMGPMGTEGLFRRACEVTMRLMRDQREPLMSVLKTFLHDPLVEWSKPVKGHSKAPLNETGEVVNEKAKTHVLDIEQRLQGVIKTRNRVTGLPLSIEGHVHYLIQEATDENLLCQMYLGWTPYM
ATR, sequence (Q8WXE1 whole entry partner, the tested form may be a part): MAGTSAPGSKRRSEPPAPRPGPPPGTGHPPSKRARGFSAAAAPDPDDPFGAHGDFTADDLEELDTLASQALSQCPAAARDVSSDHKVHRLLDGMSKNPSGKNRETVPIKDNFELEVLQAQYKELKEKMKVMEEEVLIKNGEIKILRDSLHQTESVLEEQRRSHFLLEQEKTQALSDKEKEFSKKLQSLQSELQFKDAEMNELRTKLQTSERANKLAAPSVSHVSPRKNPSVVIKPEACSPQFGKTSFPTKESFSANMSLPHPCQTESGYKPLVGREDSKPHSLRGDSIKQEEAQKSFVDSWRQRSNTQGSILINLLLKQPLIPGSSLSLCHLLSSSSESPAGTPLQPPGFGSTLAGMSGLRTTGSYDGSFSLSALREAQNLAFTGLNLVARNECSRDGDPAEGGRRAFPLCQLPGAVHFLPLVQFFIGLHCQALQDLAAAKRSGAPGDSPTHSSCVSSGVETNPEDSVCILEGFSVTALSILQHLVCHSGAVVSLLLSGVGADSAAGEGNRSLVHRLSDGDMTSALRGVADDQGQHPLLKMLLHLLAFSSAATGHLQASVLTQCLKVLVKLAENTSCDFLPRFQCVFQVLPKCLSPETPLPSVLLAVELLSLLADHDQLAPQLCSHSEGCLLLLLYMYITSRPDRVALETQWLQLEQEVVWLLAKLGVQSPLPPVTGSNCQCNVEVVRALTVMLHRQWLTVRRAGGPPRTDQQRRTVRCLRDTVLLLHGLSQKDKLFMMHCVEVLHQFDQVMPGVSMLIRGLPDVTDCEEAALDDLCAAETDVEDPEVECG

Turning to `C[C@@H]1COCCN1c1cc(C(C)(C)O)nc(-c2ccnc3[nH]ccc23)n1` [CY-212, 2-[6-[(3R)-3-methylmorpholin-4-yl]-2-[1H-pyrrolo[2,3-b]pyridin-4-yl]pyrimidin-4-yl]propan-2-ol], the IC50 in data set [1] is less than 3 nM.

As to `C[C@@H]1COCCN1c1cc(NCC2CC(F)(F)C2)nc(-c2ccnc3[nH]ccc23)n1` [CY-249, N-[(3,3-difluorocyclobutyl)methyl]-6-[(3R)-3-methylmorpholin-4-yl]-2-[1H-pyrrolo[2,3-b]pyridin-4-yl]pyrimidin-4-amine], the IC50 was less than 3 nM in data set [1] and 510 nM in data set [2].

Regarding `[2H]C([2H])([2H])N=S(C)(=O)C1(c2cc(N3CCOC[C@H]3C)nc(-c3ccnc4[nH]ccc34)n2)CC1` (stereo partly drawn) [CY-209, (2H3)methyl[methyl(1-[6-[(3R)-3-methylmorpholin-4-yl]-2-[1H-pyrrolo[2,3-b]pyridin-4-yl]pyrimidin-4-yl]cyclopropyl)oxo-lambda6-sulfanylidene]amine], in data set [1], the 50% inhibitory concentration (IC50) was less than 3 nM.

Turning to `CN=S(C)(=O)C1(c2cc(N3CCOC[C@H]3C)nc(-c3ccnc4[nH]ccc34)n2)CC1` (stereo partly drawn) [CY-200-1, Methyl[methyl(1-[6-[(3R)-3-methylmorpholin-4-yl]-2-[1H-pyrrolo[2,3-b]pyridin-4-yl]pyrimidin-4-yl]cyclopropyl)oxo-lambda-sulfanylidene]amine], in data set [1], the IC50 is less than 3 nM.

`C[C@@H]1COCCN1c1cc(C(C)(C)C#N)nc(-c2ccnc3[nH]ccc23)n1` [CY-237, 2-methyl-2-[6-[(3R)-3-methylmorpholin-4-yl]-2-[1H-pyrrolo[2,3-b]pyridin-4-yl]pyrimidin-4-yl]propanenitrile]: the values for the IC50 in data set [1] and in data set [2] were less than 3 nM and 480 nM, respectively. In data set [3], the area under the curve AUC(0-t) came to 4390 ng·h/mL.

As to `C[C@@H]1COCCN1c1cc(C(C)(O)C(F)(F)F)nc(-c2ccnc3[nH]ccc23)n1` (stereo partly drawn) [CY-257, 1,1,1-trifluoro-2-[6-[(3R)-3-methylmorpholin-4-yl]-2-[1H-pyrrolo[2,3-b]pyridin-4-yl]pyrimidin-4-yl]propan-2-ol], the IC50 in data set [1] is less than 3 nM; in data set [2], 830 nM.

For `C[C@@H]1COCCN1c1cc(C2([S@](C)(=N)=O)CC2)nc(-c2cc[nH]c3nccc2-3)n1` [AZD-6738, reference compound], the exposure AUC(0-t) in data set [3] is 3100 ng·h/mL. The compound also had a half-maximal inhibitory concentration (IC50) in data set [2] of 800 nM.

As usually defined, the IC50 is the concentration at which inhibition is half-maximal. As a reminder, the AUC(0-t) is exposure summed from dosing to a finite time, without extrapolation to infinity. High values mean more exposure, low ones less exposure.
